Source: patent US10875898B2, “Bioactive protein, use thereof and method for its production” (Koppert B.V., priority 2014, dated 2020)

Experiments:
[1] = system: B. cinerea; assay: ELISA-based inhibition assay of B. cinerea growth; assay type: cell-based, Botrytis cinerea; details: compared to hydrophobins from T. harzianum strains T22 and M10
Text: FIG. 4. Antifungal effect of HYTLO1 on B. cinerea growth compared to similar hydrophobins purified from T. harzianum strain T22 and T. harzianum strain M10. Assay protocol is described in Lorito M. et al. 1994. Microbiology UK, 140:623-629. Numbers on the left side indicate micro molar concentration of HYTLO1 used. T22 and M10=hydrophobin from strain T22 and M10, respectively. The inhibition of the pathogen colony is indicated by the reduced intensity of the dark color in the wells compared to control (C).

[2] = system: B. cinerea; assay: infection of tomato leaves by the pathogen B. cinerea; assay type: in vivo, Botrytis cinerea; details: 10 μL applied to tomato leaf 2 hours before B. cinerea spores; up to 72 hr after inoculation
Experimental: FIG. 8: Effect of purified HYTLO1 application on the infection of tomato leaves by the pathogen B. cinerea. 10 μL of a solution of HYTLO1 were applied to tomato leaves and 2 hours later 10 μL of a B. cinerea spore suspension 1×10^6/ml were applied on the same spot. The measures were taken 72 hours post inoculation. The standard deviation bars were obtained from at least three different experiments, with five replicates and a total of 15 treated leaves per treatment. In order to determine if purified HYTLO1 is able to protect the plant from foliar infection by a pathogenic fungus, the protein was tested on tomato grown-up plants against Botrytis cinerea.

[3] = system: Cucumis sativus; assay: seed germination of cucumber on MS agar; assay type: in vivo; details: 10^−8 M in agar medium
Experimental: (§1) FIG. 12: Effect of purified HYTLO1 on the growth of Arabidopsis (A), percentage seed germination of cucumber (B) and plantlet development of Lotus japonicus (C). A: Arabidopsis thaliana (Columbia-0: Col-0) seeds were sown in Levington's F2 compost plus sand (JFC Munro, Devon; http://www.jfcmonro.com) and chilled for 2 days at 4° C. Plants were grown under short-day conditions (10 h light) in a controlled environment chamber, at 22° C. during the day and 18° C. at night with 60% relative humidity for 5-6 weeks before transplanting. Ten ml of sterile solutions of HYTLO1 were drenched every two days at concentrations 0.072 μg/ml (0.01 μM) for one month in each pot containing 100 ml of soil and 1 Arabidopsis plant. Untreated plants were used as controls. B: Sterile cucumber seeds were placed on magenta box containing half-strength Murashige and Skoog salt (MS) medium (ICN Biomedicals) containing 1% agar and 1.5% sucrose, adjusted to pH 5.7, and vernalized for 2 days at 4° C. in the absence of light. A sterile solutions of HYTLO1 was added to the substrate at final concentration of 10^−8 M before the solidification of agar. C: The same concentration of HYTLO1 was used in the agarized medium used for the L. japonicus test. […]

[4] = system: Alternaria spp.; assay: spore germination in Potato Dextrose Broth; assay type: cell-based; details: 5 μM HYTLO1, 25° C., 24 hours, PDB
Experimental: (§2) FIG. 3: HYTLO1 antifungal activity. Spore of the pathogens Botrytis cinerea and Alternaria spp. and of the biocontrol agent Trichoderma harzianum strain MK1-KV966 were germinated at 25° C. for 24 hours in Potato Dextrose Broth (PDB) containing 5 μM of HYTLO1 and compared with those germinated in PDB plus the same solvent as the control.

[5] = system: Botrytis cinerea; assay: spore germination in Potato Dextrose Broth; assay type: cell-based; details: 5 μM HYTLO1, 25° C., 24 hours, PDB
Experimental: as §2

[6] = system: tomato plants; assay: tomato plant growth, watering and spraying; assay type: in vivo; details: 0.01 μM, once per week for one month; vs T. harzianum T22, GERMON E and untreated control
Text: FIG. 10: Effect of HYTLO1 on tomato plant growth as compared to treatment with T. harzianum strain T22 or the Commercial product GERMON E (G-E) base on the auxin 1-naphthaleneacetic acid, commercialized by L. Gobbi, Italy. (A) Growth increase of root and stem of HYTLO1 vs. water control, GERMON E or T22, 10 days after treatment. (B) Increase of root development (HYTLO1 treatment on the left, untreated control on the right), (C) Effect of HYTLO1 on plant size compared to T22. (D) Effect of HYTLO1 on root development compared to water control, T22, GERMON E (also in combination with HYTLO1). HYTLO1 was applied at final concentration in the soil at 10^−8 M.
FIG. 11: Effect of purified HYTLO1 on tomato plants, applied by drench on the roots or by spraying on the leaves. For the irrigation, 50 ml of a solution containing 0.072 μg/ml of HYTLO1 (0.01 μM) were applied for each pot containing 1 litre of soil and 2 tomato plants, for a total of 4 applications. For foliar application, 20 ml of a solution containing 0.072 μg/ml (0.01 μM) of HYTLO1 were sprayed for each pot containing 2 tomato plants for a total of 4 applications. […]

[7] = system: Lotus japonicus; assay: plantlet development of Lotus japonicus; assay type: in vivo; details: 10^−8 M in agarized medium
Experimental: as §1

Substance: HYTLO1: about 7 KDa Type II hydrophobin protein from Trichoderma longibrachiatum strain MK1, 71 aa, SEQ ID NO: 1
- antifungal effect on B. cinerea growth [1]: strong antifungal effect
- concentration of HYTLO1 that significantly reduced the size of the necrotic area [2]: above 1.25 μM
- growth promotion effect (percentage seed germination) [3]: confirmed
- effect on germination of spores [4]: direct inhibitory effect
- effect on germination of spores [5]: direct inhibitory effect
- growth parameters (plant height and length, root length and weight, number of leaves, stem diameter and weight) [6]: increased all of the growth parameters
- growth promotion effect (plantlet development) [7]: confirmed
